According to ChEMBL document CHEMBL3991601, “The target landscape of clinical kinase drugs” (Science, 2017):
The source made the active and inactive calls. Cut-off read from the data, not from the text of the source, for most assays here: actives have a measured Kd and inactives only a lower limit.

How the values were obtained:
[1] = biological target: T1, Serine/threonine-protein kinase TAO1 (Homo sapiens, UniProt Q7L7X3)
T1 sequence (Q7L7X3 whole entry): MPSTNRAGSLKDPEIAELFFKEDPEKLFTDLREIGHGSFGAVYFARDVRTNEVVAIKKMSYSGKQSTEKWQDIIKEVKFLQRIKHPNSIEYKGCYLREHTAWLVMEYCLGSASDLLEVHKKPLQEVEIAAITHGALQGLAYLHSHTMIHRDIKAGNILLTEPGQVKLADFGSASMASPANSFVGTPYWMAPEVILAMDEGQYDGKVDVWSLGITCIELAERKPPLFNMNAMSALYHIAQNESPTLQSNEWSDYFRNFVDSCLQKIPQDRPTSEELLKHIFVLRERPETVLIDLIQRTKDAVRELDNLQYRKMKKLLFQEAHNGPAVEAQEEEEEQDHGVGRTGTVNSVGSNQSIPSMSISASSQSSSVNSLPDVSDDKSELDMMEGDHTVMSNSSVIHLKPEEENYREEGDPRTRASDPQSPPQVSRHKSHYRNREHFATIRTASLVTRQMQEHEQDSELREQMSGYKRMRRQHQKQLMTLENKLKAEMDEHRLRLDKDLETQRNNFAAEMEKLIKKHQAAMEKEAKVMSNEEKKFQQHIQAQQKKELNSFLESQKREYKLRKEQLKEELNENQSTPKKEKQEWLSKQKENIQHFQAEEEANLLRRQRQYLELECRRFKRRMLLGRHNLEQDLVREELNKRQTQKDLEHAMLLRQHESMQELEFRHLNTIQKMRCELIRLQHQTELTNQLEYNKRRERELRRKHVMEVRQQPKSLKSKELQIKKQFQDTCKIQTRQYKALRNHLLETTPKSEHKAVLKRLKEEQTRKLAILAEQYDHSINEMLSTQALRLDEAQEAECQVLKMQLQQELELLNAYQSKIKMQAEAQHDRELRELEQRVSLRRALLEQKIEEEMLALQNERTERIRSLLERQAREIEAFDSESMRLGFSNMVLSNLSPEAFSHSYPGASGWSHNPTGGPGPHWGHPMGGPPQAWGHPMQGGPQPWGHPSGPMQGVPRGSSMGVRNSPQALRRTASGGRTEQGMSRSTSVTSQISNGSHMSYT

[2] = biological target: Serine/threonine-protein kinase pim-1 (Homo sapiens, UniProt P11309)
[3] = biological target: Cyclin-dependent kinase 7 (Homo sapiens, UniProt P50613)
Aurora kinase A = biological target: T2, Aurora kinase A (Homo sapiens, UniProt O14965)
T2 sequence (O14965 whole entry): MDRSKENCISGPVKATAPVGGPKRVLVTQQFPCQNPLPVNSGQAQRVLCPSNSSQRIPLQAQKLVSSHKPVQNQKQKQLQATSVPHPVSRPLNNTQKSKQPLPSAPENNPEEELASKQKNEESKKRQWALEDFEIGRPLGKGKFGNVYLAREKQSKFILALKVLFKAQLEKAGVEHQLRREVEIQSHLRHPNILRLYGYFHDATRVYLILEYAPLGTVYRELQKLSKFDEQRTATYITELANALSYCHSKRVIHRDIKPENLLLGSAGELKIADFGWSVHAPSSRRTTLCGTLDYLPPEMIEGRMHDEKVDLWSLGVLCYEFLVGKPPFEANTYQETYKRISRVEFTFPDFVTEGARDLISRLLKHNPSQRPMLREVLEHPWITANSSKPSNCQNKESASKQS

[4] = biological target: Serine/threonine-protein kinase/endoribonuclease IRE2 (Homo sapiens, UniProt Q76MJ5)
[5] = biological target: Serine/threonine-protein kinase/endoribonuclease IRE1 (Homo sapiens, UniProt O75460)
[6] = biological target: T3, General transcription and DNA repair factor IIH helicase subunit XPD (Homo sapiens, UniProt P18074); conditions: read-out: Kd apparent; k-562, colo 205, sk-n-be(2) and mv-4-11
T3 sequence (P18074 whole entry): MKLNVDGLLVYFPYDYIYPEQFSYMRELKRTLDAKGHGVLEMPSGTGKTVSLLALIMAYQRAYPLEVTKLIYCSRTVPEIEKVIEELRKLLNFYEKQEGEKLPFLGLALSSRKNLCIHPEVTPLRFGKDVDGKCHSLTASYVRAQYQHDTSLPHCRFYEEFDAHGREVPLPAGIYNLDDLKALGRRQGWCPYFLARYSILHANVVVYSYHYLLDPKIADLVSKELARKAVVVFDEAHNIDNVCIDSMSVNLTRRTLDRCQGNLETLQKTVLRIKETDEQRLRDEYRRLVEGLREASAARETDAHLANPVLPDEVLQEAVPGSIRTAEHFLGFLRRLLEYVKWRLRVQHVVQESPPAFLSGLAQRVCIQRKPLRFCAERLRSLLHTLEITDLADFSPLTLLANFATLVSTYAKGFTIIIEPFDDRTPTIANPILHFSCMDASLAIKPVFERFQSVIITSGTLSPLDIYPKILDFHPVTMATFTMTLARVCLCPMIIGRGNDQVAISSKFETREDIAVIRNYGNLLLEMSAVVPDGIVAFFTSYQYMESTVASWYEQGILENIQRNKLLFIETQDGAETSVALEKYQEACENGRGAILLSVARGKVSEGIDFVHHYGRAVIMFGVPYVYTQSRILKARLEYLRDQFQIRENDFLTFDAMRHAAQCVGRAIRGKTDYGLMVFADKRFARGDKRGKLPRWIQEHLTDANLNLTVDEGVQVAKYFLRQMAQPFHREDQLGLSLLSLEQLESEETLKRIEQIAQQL

[7] = biological target: T4, Membrane-associated tyrosine- and threonine-specific cdc2-inhibitory kinase (Homo sapiens, UniProt Q99640)
T4 sequence (Q99640 whole entry): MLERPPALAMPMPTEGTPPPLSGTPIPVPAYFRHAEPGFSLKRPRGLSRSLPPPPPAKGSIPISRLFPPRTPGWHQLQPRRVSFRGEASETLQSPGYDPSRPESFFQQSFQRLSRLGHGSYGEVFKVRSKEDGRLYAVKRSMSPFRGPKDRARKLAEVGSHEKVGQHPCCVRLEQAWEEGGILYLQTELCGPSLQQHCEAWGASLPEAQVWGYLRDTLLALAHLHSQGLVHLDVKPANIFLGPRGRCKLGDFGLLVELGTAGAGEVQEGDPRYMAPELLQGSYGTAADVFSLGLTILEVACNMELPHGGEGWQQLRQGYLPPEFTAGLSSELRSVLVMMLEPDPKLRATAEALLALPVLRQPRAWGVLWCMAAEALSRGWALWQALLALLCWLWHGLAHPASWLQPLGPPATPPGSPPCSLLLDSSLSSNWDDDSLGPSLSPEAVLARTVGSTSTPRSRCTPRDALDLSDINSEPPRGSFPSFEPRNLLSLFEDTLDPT
Note: in the data inactive means no Kd found up to 30 µM.

Serine/threonine-protein kinase/endoribonuclease IRE1, sequence (O75460 whole entry): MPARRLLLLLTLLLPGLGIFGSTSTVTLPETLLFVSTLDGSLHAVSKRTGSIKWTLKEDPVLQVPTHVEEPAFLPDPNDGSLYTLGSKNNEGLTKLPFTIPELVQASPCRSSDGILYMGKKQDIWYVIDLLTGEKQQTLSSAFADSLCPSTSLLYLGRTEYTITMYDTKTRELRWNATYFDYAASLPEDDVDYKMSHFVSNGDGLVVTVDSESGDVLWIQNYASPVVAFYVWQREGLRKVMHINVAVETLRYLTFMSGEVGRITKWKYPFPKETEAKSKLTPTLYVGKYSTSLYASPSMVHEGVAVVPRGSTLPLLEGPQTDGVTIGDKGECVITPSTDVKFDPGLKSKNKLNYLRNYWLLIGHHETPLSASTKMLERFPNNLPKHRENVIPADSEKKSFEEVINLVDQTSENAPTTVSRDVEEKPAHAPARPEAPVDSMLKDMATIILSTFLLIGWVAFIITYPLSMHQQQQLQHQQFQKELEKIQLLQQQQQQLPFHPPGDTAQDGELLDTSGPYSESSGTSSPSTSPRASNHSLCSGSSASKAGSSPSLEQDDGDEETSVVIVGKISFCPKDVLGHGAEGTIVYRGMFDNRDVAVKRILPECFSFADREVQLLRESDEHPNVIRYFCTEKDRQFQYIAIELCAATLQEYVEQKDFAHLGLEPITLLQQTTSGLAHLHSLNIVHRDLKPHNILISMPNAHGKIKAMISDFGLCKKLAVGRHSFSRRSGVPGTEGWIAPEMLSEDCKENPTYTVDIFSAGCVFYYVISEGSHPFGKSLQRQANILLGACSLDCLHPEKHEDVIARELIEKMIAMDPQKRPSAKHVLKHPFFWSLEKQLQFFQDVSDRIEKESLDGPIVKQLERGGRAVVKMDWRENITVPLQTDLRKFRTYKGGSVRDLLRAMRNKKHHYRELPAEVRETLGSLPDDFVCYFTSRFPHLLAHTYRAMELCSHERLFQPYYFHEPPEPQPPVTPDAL
Serine/threonine-protein kinase/endoribonuclease IRE2, sequence (Q76MJ5 whole entry): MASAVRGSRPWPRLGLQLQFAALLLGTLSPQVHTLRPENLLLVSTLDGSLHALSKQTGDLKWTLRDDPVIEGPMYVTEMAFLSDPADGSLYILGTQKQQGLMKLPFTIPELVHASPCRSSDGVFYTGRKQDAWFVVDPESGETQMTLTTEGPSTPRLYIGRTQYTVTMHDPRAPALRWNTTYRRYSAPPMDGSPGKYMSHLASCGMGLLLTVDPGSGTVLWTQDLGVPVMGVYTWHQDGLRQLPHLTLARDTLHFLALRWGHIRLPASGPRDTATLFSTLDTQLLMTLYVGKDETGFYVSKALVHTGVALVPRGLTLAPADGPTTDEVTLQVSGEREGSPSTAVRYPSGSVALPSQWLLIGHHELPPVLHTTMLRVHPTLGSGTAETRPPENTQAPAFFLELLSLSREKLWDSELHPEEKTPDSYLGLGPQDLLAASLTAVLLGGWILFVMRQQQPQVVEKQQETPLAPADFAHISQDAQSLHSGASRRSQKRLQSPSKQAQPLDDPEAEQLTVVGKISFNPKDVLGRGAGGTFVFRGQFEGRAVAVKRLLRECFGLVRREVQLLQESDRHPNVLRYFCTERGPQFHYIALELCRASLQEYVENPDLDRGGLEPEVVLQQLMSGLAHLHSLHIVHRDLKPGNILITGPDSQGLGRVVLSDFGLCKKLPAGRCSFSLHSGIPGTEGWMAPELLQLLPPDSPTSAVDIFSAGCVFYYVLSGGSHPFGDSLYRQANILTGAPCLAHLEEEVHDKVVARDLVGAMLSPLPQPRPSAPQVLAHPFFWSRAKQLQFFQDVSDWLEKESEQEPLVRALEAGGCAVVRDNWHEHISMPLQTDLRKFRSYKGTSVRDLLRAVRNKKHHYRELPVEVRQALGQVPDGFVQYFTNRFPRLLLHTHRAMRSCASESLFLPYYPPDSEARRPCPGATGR
Cyclin-dependent kinase 7, sequence (P50613 whole entry): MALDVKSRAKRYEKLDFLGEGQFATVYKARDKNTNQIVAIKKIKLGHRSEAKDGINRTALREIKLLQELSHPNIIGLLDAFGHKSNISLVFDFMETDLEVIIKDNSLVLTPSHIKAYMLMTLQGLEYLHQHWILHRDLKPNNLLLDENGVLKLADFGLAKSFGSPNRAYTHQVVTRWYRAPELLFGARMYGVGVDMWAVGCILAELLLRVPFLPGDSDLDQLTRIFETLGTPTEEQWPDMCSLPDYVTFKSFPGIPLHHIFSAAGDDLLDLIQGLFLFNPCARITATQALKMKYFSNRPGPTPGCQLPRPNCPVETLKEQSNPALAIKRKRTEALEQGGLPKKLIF
Serine/threonine-protein kinase pim-1, sequence (P11309 whole entry): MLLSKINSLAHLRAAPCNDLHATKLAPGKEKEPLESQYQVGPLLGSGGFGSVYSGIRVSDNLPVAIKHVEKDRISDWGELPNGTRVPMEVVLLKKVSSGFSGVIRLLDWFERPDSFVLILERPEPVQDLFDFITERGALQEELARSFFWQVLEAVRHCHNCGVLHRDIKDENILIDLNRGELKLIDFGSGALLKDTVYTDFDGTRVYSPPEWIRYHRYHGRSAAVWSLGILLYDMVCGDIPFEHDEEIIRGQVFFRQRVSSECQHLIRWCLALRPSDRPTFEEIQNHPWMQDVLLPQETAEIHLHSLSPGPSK

SMILES | Kd [1] | Kd [2] | Kd [3] | Kd (Aurora kinase A) | Kd [4] | Kd [5] | Kd [6] | Kd [7]
Cn1c(=O)c(F)c(Nc2ccc(I)cc2F)c2c(=O)n(C[C@@H](O)CO)cnc21 [TAK-733] | > 30 µM (inactive) | > 30 µM (inactive) | > 30 µM (inactive) | > 30 µM (inactive) | > 30 µM (inactive) | > 30 µM (inactive) | > 30 µM (inactive) | > 30 µM (inactive)
COc1cc2ncnc3c2cc1OCCCCCN(C)Cc1ccc(Br)cc1N3 [JNJ-26483327] | > 30 µM (inactive) | > 30 µM (inactive) | > 30 µM (inactive) | > 30 µM (inactive) | > 30 µM (inactive) | > 30 µM (inactive) | > 30 µM (inactive) | > 30 µM (inactive)
COc1cc2ncnc(Nc3ccc(F)c(Cl)c3)c2cc1NC(=O)/C=C/CN1CCCCC1 [DACOMITINIB ANHYDROUS] | > 30 µM (inactive) | > 30 µM (inactive) | > 30 µM (inactive) | > 30 µM (inactive) | > 30 µM (inactive) | > 30 µM (inactive) | > 30 µM (inactive) | > 30 µM (inactive)
C#Cc1cccc(Nc2ncnc3cc4c(cc23)OCCOCCOCCO4)c1 [ICOTINIB] | > 30 µM (inactive) | > 30 µM (inactive) | > 30 µM (inactive) | > 30 µM (inactive) | > 30 µM (inactive) | > 30 µM (inactive) | > 30 µM (inactive) | > 30 µM (inactive)
Cc1cc(C(=O)Nc2cc(Oc3ccc4nc(NC(=O)C5CC5)cn4n3)ccc2C)n(C)n1 [TAK-593] | > 30 µM (inactive) | > 30 µM (inactive) | > 30 µM (inactive) | > 30 µM (inactive) | > 30 µM (inactive) | > 30 µM (inactive) | > 30 µM (inactive) | > 30 µM (inactive)
COc1cc2ncnc(Nc3ccc(O)cc3)c2cc1OC [WHI-P131] | > 30 µM (inactive) | > 30 µM (inactive) | > 30 µM (inactive) | > 30 µM (inactive) | > 30 µM (inactive) | > 30 µM (inactive) | > 30 µM (inactive) | > 30 µM (inactive)
O[C@H]1CC[C@H](Nc2ncc3nc(Nc4c(F)cc(F)cc4F)n([C@H]4CCOC4)c3n2)CC1 [TANZISERTIB] | > 30 µM (inactive) | > 30 µM (inactive) | > 30 µM (inactive) | > 30 µM (inactive) | > 30 µM (inactive) | 1.36 µM (active) | > 30 µM (inactive) | > 30 µM (inactive)
S=C(NCc1ccc2c(c1)OCO2)N1CCN(c2ncnc3c2oc2ccccc23)CC1 [AMUVATINIB] | > 30 µM (inactive) | > 30 µM (inactive) | > 30 µM (inactive) | > 30 µM (inactive) | > 30 µM (inactive) | > 30 µM (inactive) | > 30 µM (inactive) | > 30 µM (inactive)
CNC(=O)c1cc(COc2nnc(Nc3ccc(Cl)cc3)c3ccoc23)ccn1 [TELATINIB] | > 30 µM (inactive) | > 30 µM (inactive) | > 30 µM (inactive) | > 30 µM (inactive) | > 30 µM (inactive) | > 30 µM (inactive) | > 30 µM (inactive) | > 30 µM (inactive)
COc1cc(F)c(F)c(Nc2ccc(I)cc2F)c1NS(=O)(=O)C1(C[C@H](O)CO)CC1 [REFAMETINIB] | > 30 µM (inactive) | > 30 µM (inactive) | > 30 µM (inactive) | > 30 µM (inactive) | > 30 µM (inactive) | > 30 µM (inactive) | > 30 µM (inactive) | > 30 µM (inactive)
COc1cccc2cc(-c3nc([C@H]4CC[C@H](C(=O)O)CC4)n4ncnc(N)c34)[nH]c12 [OSI-027] | > 30 µM (inactive) | > 30 µM (inactive) | > 30 µM (inactive) | > 30 µM (inactive) | > 30 µM (inactive) | > 30 µM (inactive) | > 30 µM (inactive) | > 30 µM (inactive)
C=CC(=O)Nc1cc(Nc2nccc(-c3cn(C)c4ccccc34)n2)c(OC)cc1N(C)CCN(C)C [OSIMERTINIB] | > 30 µM (inactive) | > 30 µM (inactive) | > 30 µM (inactive) | > 30 µM (inactive) | > 30 µM (inactive) | > 30 µM (inactive) |  | > 30 µM (inactive)
COc1cccc(Nc2ncnn3ccc(CN4CC[C@@H](N)[C@H](O)C4)c23)c1 [BMS-690514] | > 30 µM (inactive) | > 30 µM (inactive) | > 30 µM (inactive) | > 30 µM (inactive) | > 30 µM (inactive) | > 30 µM (inactive) |  | 1.85 µM (active)
NC[C@@](O)(c1ccc(Cl)cc1)c1ccc(-c2cn[nH]c2)cc1 [AT-13148] | > 30 µM (inactive) | > 30 µM (inactive) | > 30 µM (inactive) | > 30 µM (inactive) |  | > 30 µM (inactive) | > 30 µM (inactive) | > 30 µM (inactive)
N#CCNC(=O)c1ccc(-c2ccnc(Nc3ccc(N4CCOCC4)cc3)n2)cc1 [MOMELOTINIB] | > 30 µM (inactive) | > 30 µM (inactive) | > 30 µM (inactive) | > 30 µM (inactive) | > 30 µM (inactive) | > 30 µM (inactive) |  | > 30 µM (inactive)
FC(F)(F)c1ccc(CNc2ccc(Cc3c[nH]c4ncc(Cl)cc34)cn2)cn1 [PEXIDARTINIB] | > 30 µM (inactive) | > 30 µM (inactive) | > 30 µM (inactive) | > 30 µM (inactive) | > 30 µM (inactive) | > 30 µM (inactive) |  | > 30 µM (inactive)
